The nature of the data set: Azithromycin solubility in organic solvents. It counts as physicochemical.

With `CC[C@H]1OC(=O)[C@H](C)[C@@H](O[C@H]2C[C@@](C)(OC)[C@@H](O)[C@H](C)O2)[C@H](C)[C@@H](O[C@@H]2O[C@H](C)C[C@H](N(C)C)[C@H]2O)[C@](C)(O)C[C@@H](C)CN(C)[C@H](C)[C@@H](O)[C@]1(C)O` [Azithromycin, (2R,3S,4R,5R,8R,10R,11R,12S,13S,14R)-13-[(2,6-dioxy-3-C-methyl-3-O-methyl-a-L-ribohexopyranozyl)oxy]-2-ethyl-3,4, 10-trihydroxy-3,5,6,8,10,12,14-heptamethyl-11-[[3,4,6-trideoxy-3-(dimethylamino)-b-D-xylo-hexapyranozyl]oxy]-1-ox-6-azacyclopentadecane-15-one], the Maximum azithromycin conc. came out at 28.9% (solvent 2-Pyrrolidone); 26.4% (solvent 3,3-dimethyl-2-pyrrolidone); 32.1% (solvent Dimethylacetamide); 26.4% (solvent Dimethylsulfoxide); 23.3% (solvent N-ethoxy-2-pyrrolidone); 25.8% (solvent N-ethyl-2-pyrrolidone). Moreover, the Maximum azithromycin conc. reads like this: (solvent N-methyl-2-pyrrolidone) 31.2%; (solvent N-octyl-2-pyrrolidone) 21.5%; (solvent Propylene glycol) 13.4%; (solvent Transcutol) 10.2%.

Values taken from patent US20180042953A1, “ANTIBACTERIAL INJECTABLE PHARMACEUTICAL COMPOSITION” (OBSHCHESTVO S OGRANICHENNOY OTVETSTVENNOSTYU "VIK - …, priority 2012, published 2018).
